Measurements published in the supplement of paper PMC10702517.
± gives the standard deviation.

Key:
[1] = chemical recovery from spiked human plasma; higher = better extraction; details: pooled human plasma
[2] = chemical recovery into PDMS from spiked human plasma; higher = better extraction; details: pooled human plasma, extraction method: PES with PDMS
[3] = chemical recovery by SPE of plasma after PDMS sampling; higher = better extraction; details: pooled human plasma, extraction method: HLB SPE of plasma after PES
[4] = extraction method: SPE only (HLB 96-well), PES comparison experiment
[5] = extraction method: solvent precipitation (ACN + hexane)
[6] = extraction method: PES+SPE (3 d PDMS equilibration then HLB SPE)
[7] = extraction method: SPE only (HLB 96-well)
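For chemical recovery by SPE of plasma after PDMS sampling in this document: over 400 spiked chemicals quantified by LC-HRMS or GC-HRMS via internal standard calibration, recovery relative to spike mix added to unspiked plasma extract to correct matrix effects.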

| chemical recovery [1, 4] [%] | chemical recovery [1, 5] [%] | chemical recovery into PDMS ([2]; equilibration time (d): 3) [%] | chemical recovery into PDMS ([2]; equilibration time (d): 6) [%] | chemical recovery by SPE of plasma ([3]; equilibration time (d): 1) [%] | chemical recovery by SPE of plasma ([3]; equilibration time (d): 3) [%] | chemical recovery by SPE of plasma ([3]; equilibration time (d): 6) [%] | chemical recovery [1, 6] [%] | chemical recovery [1, 7] [%] | chemical recovery into PDMS ([2]; equilibration time (d): 1) [%] | Structure (SMILES) |
| --- | --- | --- | --- | --- | --- | --- | --- | --- | --- | --- |
| 49.7 ± 11 | 75.4 ± 4.9 | 0.517 ± 0.46 | 0.935 ± 0.25 | 40.6 ± 4.4 | 48.7 ± 5.1 | 42.2 ± 6.5 | – | – | – | COc1ccccc1Oc1c(NS(=O)(=O)c2ccc(C(C)(C)C)cc2)nc(-c2ncccn2)nc1OCCO [Bosentan] |
| 50.5 ± 7 | – | – | 22.6 ± 1.5 | 35.3 ± 6.4 | – | 25 ± 2.6 | – | – | 4.21 ± 7.3 | CCCC1O[C@@H]2C[C@H]3[C@@H]4CCC5=CC(=O)C=C[C@]5(C)[C@H]4[C@@H](O)C[C@]3(C)[C@]2(C(=O)CO)O1 (stereo partly specified) [Budesonide] |
| 36.9 ± 3.9 | 58.8 ± 12 | – | 0.00245 ± 0.0094 | 48 ± 8.7 | 50.1 ± 3 | 47.8 ± 4.2 | 41.3 ± 6.7 | 42 ± 8 | – | CCOc1nc2cccc(C(=O)O)c2n1Cc1ccc(-c2ccccc2-c2nnn[nH]2)cc1 [Candesartan] |
| 52.6 ± 6.1 | 72.3 ± 2.5 | 28.4 ± 2.1 | 30.7 ± 1.8 | 25.4 ± 2.9 | 21.1 ± 2.3 | 13.6 ± 1.4 | 61.4 ± 6.2 | 48.5 ± 5.5 | 22.2 ± 1.2 | NC(=O)N1c2ccccc2C=Cc2ccccc21 [Carbamazepine] |
| 53.1 ± 6.2 | 69.9 ± 2.7 | 14.1 ± 3.2 | 16.5 ± 2.4 | 49.6 ± 7.6 | 45.6 ± 4.6 | 37.2 ± 8 | 50.4 ± 4.4 | 47.2 ± 3.9 | 8.92 ± 0.88 | CCNC(=O)[C@@H](C)OC(=O)Nc1ccccc1 [Carbetamide] |
| 47.6 ± 5 | 42.7 ± 2.1 | 6.98 ± 2.7 | 8.5 ± 3.5 | 45.7 ± 5.5 | 39.7 ± 1.8 | 32.4 ± 1.7 | – | 33.2 ± 6.9 | 1.77 ± 0.12 | Cc1ccc(-c2cc(C(F)(F)F)nn2-c2ccc(S(N)(=O)=O)cc2)cc1 [Celecoxib] |
| 49.8 ± 7.3 | – | 43.6 ± 2.7 | 42.8 ± 0.94 | 11 ± 2.2 | 7.37 ± 0.66 | 4.53 ± 0.44 | – | 36.4 ± 1.9 | 37.3 ± 1.7 | CN(C)C(=O)Nc1ccc(Oc2ccc(Cl)cc2)cc1 [Chloroxuron] |
| 46.2 ± 16 | – | 20 ± 2.6 | 21.7 ± 2.5 | 2.83 ± 1.3 | 0.638 ± 1.1 | 0.232 ± 0.4 | – | – | 22 ± 5 | Cc1cc(C2CCCCC2)n(O)c(=O)c1 [Ciclopirox] |
| 46.8 ± 4.8 | 75.1 ± 3.8 | 40 ± 1 | 39.7 ± 1.4 | 1.65 ± 0.14 | 1.11 ± 0.35 | 0.487 ± 0.043 | 66.5 ± 6.8 | 37.7 ± 2.8 | 41.2 ± 2.2 | CC(C)(C)C(=O)C(Oc1ccc(Cl)cc1)n1ccnc1 (stereo unspecified) [Climbazole] |
| 44.8 ± 8.7 | – | 36.9 ± 2.1 | 37.2 ± 3.9 | 5.08 ± 8.8 | 7.02 ± 6.3 | – | – | – | 28.2 ± 4.4 | CCC(=O)O[C@]1(C(=O)CCl)[C@@H](C)C[C@H]2[C@@H]3CCC4=CC(=O)C=C[C@]4(C)[C@@]3(F)[C@@H](O)C[C@@]21C [Clobetasol propionate] |
| 49 ± 7.5 | – | 4.53 ± 1.1 | 4.86 ± 0.99 | – | 53.2 ± 3.3 | – | – | – | 1.52 ± 0.65 | C[C@H]1C[C@H]2[C@@H]3CCC4=CC(=O)C=C[C@]4(C)[C@@]3(F)[C@@H](O)C[C@]2(C)[C@@]1(O)C(=O)CCl [Clobetasol] |
| 44.4 ± 7.8 | 23 ± 10 | 42.9 ± 4.2 | 43 ± 5.5 | – | 0.676 ± 1.2 | – | – | 3.33 ± 1.6 | 40.3 ± 0.95 | CCOC(=O)C(C)(C)Oc1ccc(Cl)cc1 [Clofibrate] |
| 39.6 ± 6.6 | 60.3 ± 8.8 | 8.62 ± 0.81 | 6.38 ± 5.7 | 13.4 ± 3.1 | 12.7 ± 1.8 | 12.3 ± 3.9 | 28.5 ± 5.5 | 41.2 ± 3.6 | 7.21 ± 0.54 | Clc1cccc(Cl)c1NC1=NCCN1 [Clonidine] |
| 39.3 ± 7.1 | 78.1 ± 6.1 | 25.5 ± 7.8 | 28.3 ± 5.4 | 0.677 ± 0.17 | 1.02 ± 0.078 | 0.597 ± 0.026 | – | – | 26.7 ± 8.6 | COC(=O)[C@H](c1ccccc1Cl)N1CCc2sccc2C1 [Clopidogrel] |
| 27.7 ± 11 | 68.3 ± 3.6 | – | – | 1.19 ± 0.08 | 1.11 ± 0.26 | 0.544 ± 0.065 | 0.74 ± 0.14 | 39.1 ± 3.5 | 0.000645 ± 0.0011 | CN1CCN(C2=Nc3cc(Cl)ccc3Nc3ccccc32)CC1 [Clozapine] |
| – | 80.5 ± 3.5 | 10.6 ± 2.5 | 11.6 ± 1.5 | 6.83 ± 6.3 | 2.33 ± 0.49 | 4.13 ± 1.4 | 23.3 ± 6.5 | 6.77 ± 2.8 | 6.6 ± 0.43 | CN1C(=O)CC[C@H]1c1cccnc1 [Cotinine] |
| – | 71.8 ± 4.1 | 0.0113 ± 0.022 | 0.00679 ± 0.0059 | 7.95 ± 6.1 | 5.41 ± 0.92 | 8.35 ± 3.4 | 5.77 ± 0.89 | 7.88 ± 2.3 | – | O=S(=O)(O)NC1CCCCC1 [Cyclamate] |

| Structure (SMILES) | chemical recovery [1, 4] [%] | chemical recovery [1, 5] [%] | chemical recovery into PDMS ([2]; equilibration time (d): 3) [%] | chemical recovery into PDMS ([2]; equilibration time (d): 6) [%] | chemical recovery by SPE of plasma ([3]; equilibration time (d): 1) [%] | chemical recovery by SPE of plasma ([3]; equilibration time (d): 3) [%] | chemical recovery by SPE of plasma ([3]; equilibration time (d): 6) [%] | chemical recovery [1, 6] [%] | chemical recovery [1, 7] [%] | chemical recovery into PDMS ([2]; equilibration time (d): 1) [%] |
| --- | --- | --- | --- | --- | --- | --- | --- | --- | --- | --- |
| N#Cc1cc(Br)c(O)c(Br)c1 [Bromoxynil] | 59.5 ± 6.2 | 68.2 ± 6.9 | 0.00783 ± 0.014 | – | 58.5 ± 9.5 | 62.9 ± 3.1 | 58.6 ± 2.6 | 51 ± 4.9 | 43.9 ± 2.5 | – |
| CCCCc1c(C)nc(NCC)nc1OS(=O)(=O)N(C)C [Bupirimate] | 48.9 ± 8.9 | – | 43.9 ± 4.2 | 41.4 ± 2.6 | – | 0.147 ± 0.26 | – | – | – | 40.3 ± 1.4 |
| COC(=O)Nc1nc2ccccc2[nH]1 [Carbendazim] | 51.3 ± 6.5 | 76.8 ± 3.4 | 25.7 ± 2.7 | 27.6 ± 2.8 | 31.6 ± 3.2 | 24.5 ± 2.5 | 10.6 ± 9.6 | 55.8 ± 5.5 | 58.8 ± 4.2 | 16.9 ± 1.1 |
| CCOP(=O)(OCC)OC(=CCl)c1ccc(Cl)cc1Cl [Chlorfenvinphos] | 49.5 ± 8.3 | – | 44.3 ± 3.6 | 44.1 ± 0.92 | 0.151 ± 0.26 | – | – | – | – | 43.3 ± 1.2 |
| Nc1cnn(-c2ccccc2)c(=O)c1Cl [Chloridazon] | 54.9 ± 6.3 | 73 ± 2.7 | 7.42 ± 1.7 | 8.14 ± 1.6 | 53.7 ± 8.1 | 57.1 ± 3.2 | 51.8 ± 4.5 | 44.6 ± 2.8 | 37.3 ± 3 | 4.58 ± 0.31 |
| Oc1ccc(Cl)cc1Cc1ccccc1 [Chlorophene] | 48.5 ± 7.9 | 76.9 ± 7.2 | 15.4 ± 0.93 | 15 ± 0.42 | 36.9 ± 6.1 | 29.2 ± 5.9 | 28.6 ± 5.6 | 41.5 ± 3.1 | 36.9 ± 4.1 | 13.4 ± 0.41 |
| Cc1ccc(NC(=O)N(C)C)cc1Cl [Chlorotoluron] | 50.6 ± 6.2 | 74.4 ± 2.2 | 34.9 ± 1.4 | 36.3 ± 0.76 | 10.3 ± 0.88 | 9.6 ± 1.2 | 5.83 ± 0.28 | 61.6 ± 12 | 46 ± 3.5 | 32 ± 1.2 |
| CN/C(=N\[N+](=O)[O-])NCc1cnc(Cl)s1 [Clothianidin] | 50.9 ± 5.5 | 75.8 ± 4.7 | 1.39 ± 0.29 | 1.64 ± 0.42 | 59.2 ± 6.8 | 62.2 ± 5.3 | 57 ± 2.6 | 54 ± 1.1 | 55.1 ± 3.7 | 0.813 ± 0.031 |
| Cc1cc(C2CC2)nc(Nc2ccccc2)n1 [Cyprodinil] | 38.5 ± 5.9 | 69.9 ± 3.2 | 36.1 ± 3.9 | 36.2 ± 1.2 | 0.89 ± 0.78 | 0.733 ± 0.65 | 0.362 ± 0.33 | – | – | 33.5 ± 1.8 |
